Biological target: HLA-A∗02:01 (Homo sapiens, UniProt P04439, D140Y/D185E/D98H/E176V/E277Q/G131W/G231S/I119V/I121R/I166T/I218V/L300P/L318F/N151K/N90K/P208A/P217A/Q86G/Q94H/R138H/R169H/T345S)
Format: binding
Settings: n = 2

YM2SODGTM6SOSQV [M2SOM6SO]
IC50 compared with the native peptide: increased

— article PMC10362274 (iScience, 2023)
